Measurements taken from article PMC12102759 (Protein Science : A Publication of the Protein Society, 2025).

How the values were obtained:
G3BP1 NTF2 = G3BP1 NTF2 (Homo sapiens, UniProt Q13283); assay: biochemical; format: binding
NSP3 SUD-M = NSP3 SUD-M (Severe acute respiratory syndrome coronavirus 2, UniProt P0DTC1); assay: biochemical; format: binding, SARS‐CoV‐2
NSP3 ADRP = NSP3 ADRP (Severe acute respiratory syndrome coronavirus 2, UniProt P0DTC1); assay: biochemical; format: binding, SARS‐CoV‐2
USP7 MATH = format: binding, human; details: DMS-CoV library, bait USP7 MATH, prey N, parental peptide SKQLQQSMSSADSTQA, label suffix = wt residue, displayed residue (same letter = wild type), x = no value
TLN1 PTB = TLN1 PTB (Homo sapiens, UniProt Q9Y490); assay: biochemical; format: binding
NSP9 = NSP9 (Severe acute respiratory syndrome coronavirus 2, UniProt P0DTC1); assay: biochemical; format: binding, SARS‐CoV‐2
NSP3 UBl1 = NSP3 UBl1 (Severe acute respiratory syndrome coronavirus 2, UniProt P0DTC1); assay: biochemical; format: binding, SARS‐CoV‐2

Chain of G3BP1 NTF2 (Q13283 1-139): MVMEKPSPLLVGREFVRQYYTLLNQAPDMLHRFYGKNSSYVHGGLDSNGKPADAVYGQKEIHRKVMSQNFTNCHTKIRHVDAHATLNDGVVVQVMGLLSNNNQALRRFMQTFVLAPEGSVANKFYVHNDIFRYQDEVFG
Chain of TLN1 PTB (Q9Y490 309-401): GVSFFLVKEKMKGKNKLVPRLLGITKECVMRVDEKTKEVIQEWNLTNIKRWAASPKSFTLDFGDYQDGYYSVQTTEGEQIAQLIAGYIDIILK

Ac-APRITFGGPYDSTGSY-NH2 [N S21Y]
IC50 (G3BP1 NTF2): 16 µM
Kd (G3BP1 NTF2): 4.7 µM

Ac-QFTEEDLHFVLEGVTPY-NH2 [PRDM14 Y207E]
IC50 (NSP3 SUD-M): 243 µM
Kd (NSP3 SUD-M): 40 µM

Ac-STYLHPLSELLGIPLD-NH2 [MBOAT1 wt]
IC50 (NSP3 ADRP): 175 µM

SKQLQQSMSSADSTQA T14V (SKQLQQSMSSADSVQA)
DMS PSSM value (matrix of displayed amino acid x peptide position) (USP7 MATH): 1

SKQLQQSMSSADSTQA S13S
DMS PSSM value (matrix of displayed amino acid x peptide position) (USP7 MATH): 1

Ac-QFTEEALHFVLYGVTPY-NH2 [PRDM14 D201A]
IC50 (NSP3 SUD-M): 1050 µM
Kd (NSP3 SUD-M): 226 µM

SKQLQQSMSSADSTQA S1S
DMS PSSM value (matrix of displayed amino acid x peptide position) (USP7 MATH): 1

Ac-APRITFGGPSDSTGSY-NH2 [N wt]
Kd (G3BP1 NTF2): 2.3 µM

Ac-APRIEFGGPSDSTGSY-NH2 [N12–26 T16E]
effect of mutation on affinity, in words (G3BP1 NTF2): sevenfold loss of affinity
Kd (G3BP1 NTF2): 16 µM

Ac-STYLHPLSELLGIPFD-NH2 [MBOAT1 L31F]
IC50 (NSP3 ADRP): 285 µM
Kd (NSP3 ADRP): 93 µM

Ac-QFTEENLHFVLYGVTPY-NH2 [PRDM14 D201N]
IC50 (NSP3 SUD-M): 1430 µM
Kd (NSP3 SUD-M): 313 µM

Ac-APLITFGGPSDSTGSY-NH2 [N R14L]
IC50 (G3BP1 NTF2): 11 µM
Kd (G3BP1 NTF2): 3 µM

Ac-LADLIFTDSKLYIPLE-NH2 [TPTE2 wt]
IC50 (TLN1 PTB): 15 µM
Kd (TLN1 PTB): 4.5 µM

Ac-QFTEEELHFVLYGVTPY-NH2 [PRDM14 D201E]
IC50 (NSP3 SUD-M): 90 µM
Kd (NSP3 SUD-M): 5.4 µM
fold increase in affinity compared to wild‐type PRDM14 peptide (NSP3 SUD-M): 14 fold

Ac-QGAWLGAVEPWEPLLD-NH2 [NOTCH4 P1613V]
IC50 (NSP9): 105 µM
Kd (NSP9): 33 µM

Ac-APRITFGGPSDSTGSY-NH2 [N12–26]
Kd (G3BP1 NTF2): 2 µM

SKQLQQSMSSADSTQA M8M
DMS PSSM value (matrix of displayed amino acid x peptide position) (USP7 MATH): 1

SKQLQQSMSSADSTQA Q5Q
DMS PSSM value (matrix of displayed amino acid x peptide position) (USP7 MATH): 1

Ac-APRITFGAPSDSTGSY-NH2 [N G19A]
IC50 (G3BP1 NTF2): 5.2 µM
Kd (G3BP1 NTF2): 1.1 µM

Ac-QGAWLGAPEPWEPLLD-NH2 [NOTCH4 wt]
IC50 (NSP9): 205 µM
Kd (NSP9): 72 µM

Ac-QGAWLPAPEPWEPLLD-NH2 [NOTCH4 G1611P]
Kd (NSP9): 410 µM

Ac-PSDEGALLDQLYLALR-NH2 [NCOA2 wt]
IC50 (NSP3 UBl1): 139 µM
Kd (NSP3 UBl1): 39 µM

Ac-QGAWLGAPEPWFPLLD-NH2 [NOTCH4 E1617F]
IC50 (NSP9): 109 µM
Kd (NSP9): 35 µM

Ac-LADLIFTDSKLYLPLE-NH2 [TPTE2_I104L]
Kd (TLN1 PTB): 4.5 µM

Ac-STYLHPLSELLGMPLD-NH2 [MBOAT1 I29M]
IC50 (NSP3 ADRP): 268 µM
Kd (NSP3 ADRP): 86.5 µM

SKQLQQSMSSADSTQA S10S
DMS PSSM value (matrix of displayed amino acid x peptide position) (USP7 MATH): 1

Ac-DPRITFGGPSDSTGSY-NH2 [N A12D]
IC50 (G3BP1 NTF2): 9.9 µM
Kd (G3BP1 NTF2): 2.7 µM

SKQLQQSMSSADSTQA S7S
DMS PSSM value (matrix of displayed amino acid x peptide position) (USP7 MATH): 1

Ac-QGAWLGIPEPWEPLLD-NH2 [NOTCH4 A1612I]
IC50 (NSP9): 149 µM
Kd (NSP9): 50 µM
